Series [1] relates to L. infantum promastigotes. As to the kind of experiment: microbe, parasite or virus in culture. Format: cell-based, Leishmania infantum. As to conditions: for growth inhibition: promastigotes, 72 h, 100 µM; for IC50: L. infantum promastigotes, in vitro; for Selectivity index (CC50/IC50): CC50 in human umbilical vein endothelial cells / IC50 for promastigotes. As for the experimental part: L. infantum (MHOM/ES/2016/CATB101) promastigotes were maintained at 26°C in complete Schneider’s medium (Schneider’s insect medium supplemented with 10% FBS, 25 µg/mL gentamycin, 1% penicillin-streptomycin, and 1% sterile human urine, pH 6.7). For growth inhibition assays, promastigotes were used in the logarithmic growth phase, whereas for the infection of macrophages and generation of amastigotes they were used in the stationary phase. Axenic amastigotes were obtained following established protocols ([40], [57][–][59]); briefly, 1 × 10^7 promastigotes/mL in stationary phase were cultured in Schneider’s insect medium supplemented with 20% FBS, 25 µg/mL gentamycin, and 3.9 g/L of 2-(N-morpholino)ethanesulfonic acid, at pH 5.4 and 37°C. After 48 h, the typical rounded morphology of axenic amastigotes and their flagellum shortening could be observed. This culture was used within a week after its preparation.
In 96-well microtiter plates (Nunclon Delta surface; Thermo Fisher Scientific Inc.), serial dilutions (1:2) of the drugs or peptides were performed, either free or loaded in nanoformulations, in 100 µL of complete Schneider’s medium, to which one volume of 2 × 10^6 logarithmic growth-phase L. infantum promastigotes/mL in the same buffer was added. After 48 h, resazurin sodium salt was incorporated at a final concentration of 0.00125% and the plates were incubated at 26°C for another 24 h, when fluorescence from resorufin was measured as described above.

The next series can be described thus: in vitro. Format: cell-based. The settings on record: human umbilical vein endothelial cells; for CC50: 48 h. As for the experimental part: Human umbilical vein endothelial cells were maintained in M-199 supplemented with 10% fetal bovine serum (FBS) and 1% penicillin-streptomycin at 37°C, 5% CO2, and seeded in 96-well plates at a density of 50,000 cells/mL. After allowing cell adherence for 24 h, the medium was removed, and drugs or nanoformulations were added in M-199 supplemented with 1% penicillin-streptomycin. Plates were incubated for 48 h, and then, the medium in each well was replaced by 100 µL of M-199 containing penicillin-streptomycin and 0.00125% resazurin sodium salt (Sigma-Aldrich Corporation). Plates were incubated for 4 h, and resorufin fluorescence emission was measured (λex/em: 535/590 nm) in a Tecan Infinite 200 PRO equipment (Tecan Trading AG).

The subject of the next series is L. infantum amastigotes. As to the kind of experiment: Amastigote growth inhibition assay (parasite rescue and transformation, RAW 264.7 macrophages). As to conditions: in vitro. Format: cell-based, Leishmania infantum. The procedure:
Compound activity on amastigotes was determined following the parasite rescue and transformation assay ([61]). RAW 264.7 macrophages were seeded in 96-well microtiter plates at 10^5 cells/mL of DMEM supplemented with 10% FBS and 1% penicillin-streptomycin (complete DMEM, DMEMc) in a final volume of 200 µL per well. After an overnight incubation (37°C, 5% CO2) to allow cell adherence, the medium was removed and 10^6 L. infantum promastigotes/mL were added (1:10 macrophage:promastigote ratio) in DMEM supplemented with 2% FBS and 1% penicillin-streptomycin (DMEM 2% FBS). After 24 h, parasites not internalized by macrophages were removed by washing (3×, PBS) and dilutions in DMEM 2% FBS of free or liposome-encapsulated compounds were added. After 48 h, the medium was removed, cells were washed three times with PBS, and 40 µL of 0.05% SDS in complete Schneider’s medium was added; after 40 s, 160 additional µL/well of complete Schneider’s medium was added and plates were incubated at 26°C for another 48 h. Then, resazurin sodium salt was incorporated at a final concentration of 0.00125% and plates were incubated for 24 h more in the same conditions. Afterwards, resorufin fluorescence was measured as above.

Another series has as its system promastigotes. More on the design: method as in PMID 16316700. The settings on record: cited from earlier work.
The mark [2] stands for this setting: L. infantum amastigotes in RAW 264.7 macrophages.
Where [3] appears, read: Leishmania infantum, RAW264.7, L. infantum amastigotes in RAW 264.7 macrophages.

SMILES strings stand for the structures. Residues, ends and D or L forms follow the SMILES beside them.

The term CC50 denotes the concentration that lowers cell viability or growth by half. A low value points to greater toxicity to the cells. In general, IC50 refers to the concentration that inhibits the measured activity by half.

Consider `CC[C@H](C)[C@H](NC(=O)[C@H](Cc1ccccc1)NC(=O)[C@H](CC(N)=O)NC(=O)[C@H](CC(=O)O)NC(C)=O)C(=O)N[C@@H](Cc1ccccc1)C(=O)NCC(=O)N[C@@H](CCC(N)=O)C(N)=O` [DNFIFGQ, Acetyl-DNFIFGQ-amide] (Ac-DNFIFGQ-NH2), for which the growth inhibition in series [1] was found to be 2%.

Turning to `CC1=CC2Cc3nc4cc(Cl)ccc4c(NCCCCCCCNc4c5c(nc6ccccc46)CCCC5)c3C(C1)C2` (stereo not drawn) [HUP7TH], the CC50 at 48 h in “in vitro” came to 7800 ± 3400 nM. The figures for the IC50 (in the series with L. infantum amastigotes (setting [2]); in series [1]) were 920 ± 380 nM and 1230 ± 420 nM, respectively.

For `CC1=CC2Cc3nc4cc(Cl)ccc4c(NCCCN(C)CCCNc4c5c(nc6cc(Cl)ccc46)CCCC5)c3C(C1)C2` (stereo not drawn) [HUPNTCl], in the series “in vitro”, half-maximal cytotoxicity (CC50) was put at 6300 ± 500 nM. Moreover, the IC50 in the series with L. infantum amastigotes (setting [3]) came out at 1040 ± 210 nM; in series [1] (Leishmania infantum), 2030 ± 190 nM. For the same compound, in series [1], the “Selectivity index (CC50/IC50)” value is listed as 3.1.

Consider `CC1=CC2Cc3nc4cc(Cl)ccc4c(NCCCN(C)CCCNc4c5c(nc6ccccc46)CCCC5)c3C(C1)C2` (stereo not drawn) [HUPNTH], for which, in “in vitro”, the CC50 at 48 h was found to be 3400 ± 1000 nM. For the same compound, the concentration for half-maximal inhibition (IC50) in the series with L. infantum amastigotes (setting [2]) turned out to be 1520 ± 660 nM; in series [1] it was 2370 ± 1400 nM.

`CC1=CC2Cc3nc4ccccc4c(NCCCCCCCCCCNc4c5c(nc6ccccc46)CCCC5)c3C(C1)C2` (stereo not drawn) [HUPH10TH] displayed a 50% cytotoxic concentration (CC50) at 48 h in the series “in vitro” of 3400 ± 100 nM. The IC50 with L. infantum amastigotes (setting [2]) was 970 ± 210 nM; in series [1], 720 ± 110 nM.

Consider `CC[C@H](C)[C@H](NC(=O)[C@H](C)NC(C)=O)C(=O)N[C@@H](CO)C(=O)N[C@H](C(=O)N[C@@H](Cc1ccccc1)C(=O)N[C@@H](Cc1ccccc1)C(=O)N[C@@H](CC(C)C)C(=O)N[C@@H](CCC(=O)O)C(=O)N1CCC[C@H]1C(N)=O)C(C)C` (Ac-AISVFFLEP-NH2), for which the growth inhibition in series [1] is given as 0%.

Compound `CC1=CC2Cc3nc4cc(Cl)ccc4c(NCCCCCCCCNc4c5c(nc6ccccc46)CCCC5)c3C(C1)C2` (stereo not drawn) [HUP8TH] returned a CC50 in “in vitro” of 4900 ± 1300 nM. Also, the concentration for half-maximal inhibition (IC50) was 1630 ± 340 nM with L. infantum amastigotes (setting [3]) and 990 ± 470 nM in series [1] (Leishmania infantum). Also, in series [1], the “Selectivity index (CC50/IC50)” value stood at 4.9.

Compound `COc1cc2c(cc1OC)C(=O)C(CC1CCN(CCCNc3c4c(nc5cc(Cl)ccc35)CCCC4)CC1)C2` (stereo not drawn) [DONE3TCl] returned a CC50 in the series “in vitro” of 12600 ± 2200 nM. Besides, the IC50 in the series with L. infantum amastigotes (setting [3]) was 620 ± 80 nM; in series [1] (Leishmania infantum), 2090 ± 400 nM. The “Selectivity index (CC50/IC50)” value in series [1] is listed as 6.0.

In the case of `C[C@@H]1[C@H](O)[C@@H](C)/C=C/C=C/C=C/C=C/C=C/C=C/C=C/[C@H](O[C@@H]2O[C@H](C)[C@@H](O)[C@H](N)[C@@H]2O)C[C@@H]2O[C@](O)(C[C@@H](O)C[C@@H](O)[C@H](O)CC[C@@H](O)C[C@@H](O)CC(=O)O[C@H]1C)C[C@H](O)[C@H]2C(=O)O` [Amphotericin B], the 50% inhibitory concentration (IC50) with promastigotes was 40 nM.

These data come from publication PMC10916400, “Effect of the aggregated protein dye YAT2150 on Leishmania parasite viability” (Antimicrobial Agents and Chemotherapy, 2024).
